Consider 16 compounds from ChEMBL document CHEMBL3045062, “Potent in vitro and in vivo antitubercular activity of certain newly synthesized indophenazine 1,3,5-trisubstituted pyrazoline derivatives bearing benzofuran” (Med Chem Res, 2011).

Each structure is given as a SMILES string. Values after ≈ are worked out from the molar mass of the structure shown.

The test system of test [1] is Mycobacterium tuberculosis. As to the kind of experiment: Antitubercular activity against Mycobacterium tuberculosis H37Rv after 60 days. Format: functional.
In another test the test system is Vero. The test can be described thus: Cytotoxicity against Chlorocebus aethiops (African green monkey) Vero cells after 72 hr. Format: cell-based. To be noted: Chlorocebus sabaeus.

A word on the MIC50: it is an inhibitory concentration at the 50% level, which refers to growth in some studies and to a panel of isolates in others. Higher therefore signals lower susceptibility. Broadly, the MIC90 is the lowest concentration that inhibits either 90% of growth or 90% of the strains tested, depending on the study. Lower therefore signals greater potency. The IC50 is the concentration needed to halve the response being measured. A low value points to higher potency. In test [1], `O=C(Cn1c2ccccc2c2nc3ccccc3nc21)N1N=C(c2cc3cc(O)ccc3o2)CC1c1ccccc1O` (configuration not stated) returned an MIC50 of 9.81 mg/L (≈ 17.7 µM) and an MIC90 of 10.8 mg/L (≈ 19.6 µM). In the test on Vero, this compound showed an IC50 of over 227 µM.

In test [1], `COc1ccccc1C1CC(c2cc3cc(O)ccc3o2)=NN1C(=O)Cn1c2ccccc2c2nc3ccccc3nc21` (configuration not stated) displayed an MIC50 of 11.8 mg/L (≈ 20.8 µM) and an MIC90 of 14.2 mg/L (≈ 25 µM). In the test on Vero, this compound had an IC50 of over 226 µM.

In test [1], `CN(C)c1ccc(C2CC(c3cc4cc(O)ccc4o3)=NN2C(=O)Cn2c3ccccc3c3nc4ccccc4nc32)cc1` (configuration not stated) yielded an MIC50 of 5.56 mg/L (≈ 9.58 µM) and an MIC90 of 9.21 mg/L (≈ 15.9 µM). Moreover, the IC50 in the test on Vero is over 216 µM.

In the test with Vero, `CC(=O)c1ccccc1C1CC(c2cc3cc(O)ccc3o2)=NN1C(=O)Cn1c2ccccc2c2nc3ccccc3nc21` (configuration not stated) came in with a 50% inhibitory concentration (IC50) of over 220 µM.

On to `O=C(Cn1c2ccccc2c2nc3ccccc3nc21)N1N=C(c2cc3cc(O)ccc3o2)CC1c1cccc([N+](=O)[O-])c1` (configuration not stated), for which, in test [1], the MIC50 came out at 0.62 mg/L (≈ 1.06 µM) and the MIC90 came out at 1.24 mg/L (≈ 2.13 µM). The compound further gave an IC50 in the test with Vero of over 180 µM.

In test [1], `COc1ccc(C2CC(c3cc4cc(O)ccc4o3)=NN2C(=O)Cn2c3ccccc3c3nc4ccccc4nc32)c(O)c1` (configuration not stated) came in with an MIC50 of 4.56 mg/L (≈ 7.81 µM) and an MIC90 of 8.32 mg/L (≈ 14.3 µM). In addition, the IC50 in the test with Vero is over 206 µM.

Compound `O=C(Cn1c2ccccc2c2nc3ccccc3nc21)N1N=C(c2cc3cc(O)ccc3o2)CC1c1ccc(O)cc1` (configuration not stated) registered an IC50 with Vero of over 245 µM.

In test [1], `O=C(Cn1c2ccccc2c2nc3ccccc3nc21)N1N=C(c2cc3cc(O)ccc3o2)CC1c1ccc(Cl)cc1` (configuration not stated) gave an MIC50 of 2.45 mg/L (≈ 4.28 µM) and an MIC90 of 4.2 mg/L (≈ 7.34 µM). The compound further returned an IC50 in the test with Vero of over 205 µM.

In test [1], `O=C(Cn1c2ccccc2c2nc3ccccc3nc21)N1N=C(c2cc3cc(O)ccc3o2)CC1c1ccccc1Cl` (configuration not stated) came in with an MIC50 of 1.75 mg/L (≈ 3.06 µM) and an MIC90 of 2.56 mg/L (≈ 4.48 µM). The compound further gave an IC50 in the test on Vero of over 196 µM.

In test [1], `O=C(Cn1c2ccccc2c2nc3ccccc3nc21)N1N=C(c2cc3cc(O)ccc3o2)CC1c1ccccc1[N+](=O)[O-]` (configuration not stated) registered an MIC50 of 0.16 mg/L (≈ 0.275 µM) and an MIC90 of 0.42 mg/L (≈ 0.721 µM). In the test with Vero, the IC50 is over 144 µM.

In test [1], `COc1ccc(C2CC(c3cc4cc(O)ccc4o3)=NN2C(=O)Cn2c3ccccc3c3nc4ccccc4nc32)cc1` (configuration not stated) registered an MIC50 of 12.1 mg/L (≈ 21.3 µM) and an MIC90 of 14.3 mg/L (≈ 25.2 µM). Further, in the test with Vero, the IC50 was over 226 µM.

As for `O=C(Cn1c2ccccc2c2nc3ccccc3nc21)N1N=C(c2cc3cc(O)ccc3o2)CC1c1ccccc1` (configuration not stated), the IC50 in the test with Vero is over 197 µM.

`O=C(Cn1c2ccccc2c2nc3ccccc3nc21)N1N=C(c2cc3cc(O)ccc3o2)CC1c1ccco1` (configuration not stated): in test [1], the MIC50 is 1.1 mg/L (≈ 2.09 µM) and the MIC90 was found to be 3.12 mg/L (≈ 5.91 µM). The compound also yielded an IC50 with Vero of over 198 µM.

In test [1], `O=C(Cn1c2ccccc2c2nc3ccccc3nc21)N1N=C(c2cc3cc(O)ccc3o2)CC1/C=C/c1ccccc1` (configuration not stated) showed an MIC50 of 0.98 mg/L (≈ 1.74 µM) and an MIC90 of 3.67 mg/L (≈ 6.51 µM). In the test with Vero, this compound displayed an IC50 of over 206 µM.

As to `COc1c(N2CCNC(C)C2)c(F)cc2c(=O)c(C(=O)O)cn(C3CC3)c12` (configuration not stated) [GATIFLOXACIN], in test [1], the MIC50 is 0.12 mg/L (≈ 0.32 µM) and the MIC90 was 0.5 mg/L (≈ 1.33 µM). The same compound showed an IC50 with Vero of over 160 µM.

In the case of `CO[C@H]1/C=C/O[C@@]2(C)Oc3c(C)c(O)c4c(O)c(c(/C=N/N5CCN(C)CC5)c(O)c4c3C2=O)NC(=O)/C(C)=C\C=C\[C@H](C)[C@H](O)[C@@H](C)[C@@H](O)[C@@H](C)[C@H](OC(C)=O)[C@@H]1C` [RIFAMPIN], in test [1], the MIC50 came to 0.5 mg/L (≈ 0.608 µM) and the MIC90 was found to be 2 mg/L (≈ 2.43 µM). Further, the IC50 in the test with Vero is over 77.4 µM.
